The results in this text go back to patent publication US10294217B2, “Fluoroindole derivatives as muscarinic M1 receptor positive allosteric modulators” (Suven Life Sciences Limited, priority 2015, dated 2019).

In one experiment the test system is Male Wistar rats. Put plainly: Object recognition task model - scopolamine challenge. The experiment is classed as in vivo. To be noted: p.o.; for Exploration time Familiar object / Exploration time Novel object: mean ± S.E.M, choice trial 3 minutes after T1. The method, then: Object Recognition Task Model—Scopolamine challenge
The cognition enhancing properties of compounds of this invention were estimated by using this model.
Male Wistar rats (8-10 weeks old) were used as experimental animals. Four animals were housed in each cage. Animals were kept on 20% food deprivation from a day prior to experimentation. Water was provided ad libitum throughout the experiment. Animals were maintained on a 12 hours light/dark cycle in temperature and humidity controlled room. The experiment was carried out in an open field made up of acrylic. Rats were habituated to individual arenas (open field) for 1 hour in the absence of any objects on day 1.
Rats received vehicle or vehicle and scopolamine or compound of the formula (I) and scopolamine, before the familiar (T1). During the familiarization phase, (T1), the rats were placed individually in the arena for 3 minutes, in which two identical objects (a1 and a2) were positioned 10 cm from the wall. 3 minutes after T1, trial for memory test was performed. The same rats were placed in the same arena as they were placed in T1 trial. During the choice phase (T2) rats were allowed to explore the arena for 3 minutes in presence of a copy of familiar object (a3) and one novel object (b). During the T1 and T2 trial, explorations of each object (defined as sniffing, licking, chewing or having moving vibrissae whilst directing the nose towards the object at a distance of less than 1 cm) were recorded using stopwatch. • T1 is the total time spent exploring the familiar objects (a1+a2). • T2 is the total time spent exploring the familiar object and novel object (a3+b). • Discriminative index=Time spent with novel object/(time spent with novel and familiar object).

Experiment [1] has as its system cerebral blood flow in the frontal cortex. Kind of experiment: Modulation of cerebral blood flow in frontal cortex. It is filed as in vivo. To be noted: anaesthetized rats, intravenous, Laser Doppler, FIG. 2. The method, then:
Modulation of Cerebral Blood Flow in Frontal Cortex:
The effect of test compound on modulation of cerebral blood flow was evaluated using rats.
Rats were acclimatized to the laboratory environment for at least 7 days. Rats (300-350 grams) were housed in a group of four in a controlled environment (Temp=21±3° C.; Humidity=30-70%) and maintained on a 12-hour light/dark cycle with lights on at 07:00 AM. Food and water was provided ad libitum.
Rats were anaesthetized with 12% urethane (i.p.). Animal's body core temperature was maintained at 37° C. via heating pad and rectal temperature probe. A small incision was made at one of the ventral side of the hind limb and the femoral vein was cannulated with PE10 tubing for drug application. Then animal was placed into a stereotaxic frame and a midline incision was made to expose the skull. A burr hole was drilled over the frontal cortex (stereotaxic coordinates 1 mm anterior and 4 mm lateral to bregma). Oxygen was supplied through the nose cone of the seterotaxic apparatus which was connected to the controlled gaseous supplier with a flow of 200 mL/minute. Laser Doppler probe (AD Instruments Inc) was placed over the hole to monitor cerebral blood flow. […] Data obtained was calculated as percent increase relative to resting basal blood flow level. […]

Turning to `Cl.O=C(N[C@H]1CCNC[C@H]1F)c1cn(Cc2ccnc(F)c2)c2c(F)ccc(F)c12` (single isomer, unassigned; isomer-i) [Example 22, Cis-N-(3-Fluoropiperidin-4-yl)-1-(2-fluoropyridin-4-ylmethyl)-4,7-difluoro-1H-indole-3-carboxamide hydrochloride (Isomer-I)], in the experiment on Male Wistar rats (1 mg/kg), the Inference result was “Active”, the “Exploration time Familiar object” value is 21.34 ± 3.65 s and the “Exploration time Novel object” value was determined as 29.70 ± 1.72 s.

With `Cn1cc(Cn2cc(C(=O)N[C@H]3CCCC[C@@H]3O)c3c(F)cccc32)cn1` [Example 1, N-[(1S,2S)-2-Hydroxycyclohexyl]-1-(1-methyl-1H-pyrazol-4-ylmethyl)-4-fluoro-1H-indole-3-carboxamide], in the experiment on Male Wistar rats (0.3 mg/kg), the Inference entry is listed as “Active”, the “Exploration time Familiar object” value was 7.54 ± 1.93 s and the “Exploration time Novel object” value came out at 13.07 ± 1.79 s. Moreover, the cerebral blood flow result in experiment [1] is given as “significantly increased the cerebral blood flow”.

For the compound `O=C(N[C@H]1CCCC[C@@H]1O)c1cn(Cc2ccnc(Cl)c2)c2cccc(F)c12` [Example 2, N-[(1S,2S)-2-Hydroxycyclohexyl]-1-(2-chloropyridin-4-ylmethyl)-4-fluoro-1H-indole-3-carboxamide], in the experiment with Male Wistar rats (0.3 mg/kg), the Inference result is recorded as “Active”, the “Exploration time Familiar object” value was 14.29 ± 1.92 s and the “Exploration time Novel object” value was 20.93 ± 2.89 s.

`Cn1cc(Cn2cc(C(=O)N[C@H]3CCCC[C@@H]3O)c3c(F)ccc(F)c32)cn1` [Example 5, N-[(1S,2S)-2-Hydroxycyclohexyl]-1-(1-methyl-1H-pyrazol-4-ylmethyl)-4,7-difluoro-1H-indole-3-carboxamide]: in the experiment with Male Wistar rats (1 mg/kg), the Inference result was “Active”, the “Exploration time Familiar object” value turned out to be 13.61 ± 1.79 s and the “Exploration time Novel object” value was found to be 25.72 ± 3.67 s.
